Measured values as given in patent US10640497B2, “Microbiocidal oxadiazole derivatives” (SYNGENTA PARTICIPATIONS AG, priority 2015, dated 2020).

What was measured:
[1] = test system: Puccinia recondita f. sp. tritici; assay: Fungicidal activity against Puccinia recondita f. sp. tritici, wheat, leaf disc preventative (brown rust); format: in vivo; settings: foliar, wheat leaf segments, preventative (inoculated 1 day after application), 7-9 days after application, compared to untreated control
Protocol: (§1) Leaf disks or leaf segments of various plant species are cut from plants grown in a greenhouse. The cut leaf disks or segments are placed in multiwell plates (24-well format) onto water agar. The leaf disks are sprayed with a test solution before (preventative) or after (curative) inoculation. Compounds to be tested are prepared as DMSO solutions (max. 10 mg/ml) which are diluted to the appropriate concentration with 0.025% Tween20 just before spraying. The inoculated leaf disks or segments are incubated under defined conditions (temperature, relative humidity, light, etc.) according to the respective test system. A single evaluation of disease level is carried out 3 to 14 days after inoculation, depending on the pathosystem. Percent disease control relative to the untreated check leaf disks or segments is then calculated. Wheat leaf segments cv. Kanzler are placed on agar in multiwell plates (24-well format) and sprayed with the formulated test compound diluted in water. The leaf segments are inoculated with a spore suspension of the fungus 1 day after application. The inoculated leaf segments are incubated at 19° C. and 75% rh under a light regime of 12 h light/12 h darkness in a climate cabinet and the activity of a compound is assessed as percent disease control compared to untreated when an appropriate level of disease damage appears in untreated check leaf segments (7-9 days after application).

[2] = test system: Glomerella lagenarium (Colletotrichum lagenarium); assay: Fungicidal activity against Glomerella lagenarium (Colletotrichum lagenarium), liquid culture, cucumber, preventative (anthracnose); format: cell-based; settings: Colletotrichum orbiculare, liquid culture (PDB), growth inhibition measured photometrically 3-4 days after application, compared to untreated control
Protocol: Mycelia fragments or conidia suspensions of a fungus, prepared either freshly from liquid cultures of the fungus or from cryogenic storage, are directly mixed into nutrient broth. DMSO solutions of the test compound (max. 10 mg/ml) is diluted with 0.025% Tween20 by a factor of 50 and 10 μl of this solution is pipetted into a microtiter plate (96-well format). The nutrient broth containing the fungal spores/mycelia fragments is then added to give an end concentration of the tested compound. The test plates are incubated in the dark at 24° C. and 96% relative humidity. The inhibition of fungal growth is determined photometrically after 2 to 7 days, depending on the pathosystem, and percent antifungal activity relative to the untreated check is calculated. Conidia of the fungus from cryogenic storage are directly mixed into nutrient broth (PDB potato dextrose broth). After placing a (DMSO) solution of test compound into a microtiter plate (96-well format), the nutrient broth containing the fungal spores is added. The test plates are incubated at 24° C. and the inhibition of growth is measured photometrically 3-4 days after application.

[3] = test system: Phakopsora pachyrhizi; assay: Fungicidal activity against Phakopsora pachyrhizi, soybean, leaf disc preventative (Asian soybean rust); format: in vivo; settings: foliar, 288 h, 12-14 days after application, compared to untreated control
Protocol: Leaf disks or leaf segments of various plant species are cut from plants grown in a greenhouse. The cut leaf disks or segments are placed in multiwell plates (24-well format) onto water agar. The leaf disks are sprayed with a test solution before (preventative) or after (curative) inoculation. Compounds to be tested are prepared as DMSO solutions (max. 10 mg/ml) which are diluted to the appropriate concentration with 0.025% Tween20 just before spraying. The inoculated leaf disks or segments are incubated under defined conditions (temperature, relative humidity, light, etc.) according to the respective test system. A single evaluation of disease level is carried out 3 to 14 days after inoculation, depending on the pathosystem. Percent disease control relative to the untreated check leaf disks or segments is then calculated. Soybean leaf disks are placed on water agar in multiwell plates (24-well format) and sprayed with the formulated test compound diluted in water. One day after application leaf discs are inoculated by spraying a spore suspension on the lower leaf surface. After an incubation period in a climate cabinet of 24-36 hours in darkness at 20° C. and 75% rh leaf disc are kept at 20° C. with 12 h light/day and 75% rh. The activity of a compound is assessed as percent disease control compared to untreated when an appropriate level of disease damage appears in untreated check leaf disks (12-14 days after application).

[4] = test system: Puccinia recondita f. sp. tritici; assay: Fungicidal activity against Puccinia recondita f. sp. tritici, wheat, leaf disc curative (brown rust); format: in vivo; settings: foliar, 144 h, wheat leaf segments, curative (applied 1 day after inoculation), 6-8 days after application, compared to untreated control
Protocol: as §1, with “plates (24-well format). The leaf” for “plates (24-well format) and sprayed with the formulated test compound diluted in water. The leaf”, “of the fungus. Plates are stored in darkness at 19° C. and 75% rh. The formulated test compound diluted in water is applied 1 day” for “of the fungus 1 day”, “day after inoculation. The leaf” for “day after application. The inoculated”, “inoculation. The leaf segments” for “application. The inoculated leaf segments”, “leaf segments (6-8 days after” for “leaf segments (7-9 days after”

## O=C1CCCN1Cc1ccc(-c2noc(C(F)(F)F)n2)cc1 [Compound A-1, 1-[[4-[5-(trifluoromethyl)-1,2,4-oxadiazol-3-yl]phenyl]methyl]pyrrolidin-2-one]
[1]
  pest or weed control at 200 ppm: ≥ 80%
[2]
  inhibition of growth at 20 ppm: ≥ 80%
[3]
  pest or weed control at 200 ppm: ≥ 80%
[4]
  pest or weed control at 200 ppm: ≥ 80%

## O=C1CCCCN1Cc1ccc(-c2noc(C(F)(F)F)n2)cc1 [Compound A-2, 1-[[4-[5-(trifluoromethyl)-1,2,4-oxadiazol-3-yl]phenyl]methyl]piperidin-2-one]
[1]
  pest or weed control at 200 ppm: ≥ 80%
[3]
  pest or weed control at 200 ppm: ≥ 80%
[4]
  pest or weed control at 200 ppm: ≥ 80%

## O=C1COCCN1Cc1ccc(-c2noc(C(F)(F)F)n2)cc1 [Compound A-3, 4-[[4-[5-(trifluoromethyl)-1,2,4-oxadiazol-3-yl]phenyl]methyl]morpholin-3-one]
[1]
  pest or weed control at 200 ppm: ≥ 80%
[3]
  pest or weed control at 200 ppm: ≥ 80%
[4]
  pest or weed control at 200 ppm: ≥ 80%

## CC1(C)CON(Cc2ccc(-c3noc(C(F)(F)F)n3)cc2)C1=O [Compound A-4, 4,4-dimethyl-2-[[4-[5-(trifluoromethyl)-1,2,4-oxadiazol-3-yl]phenyl]methyl]isoxazolidin-3-one]
[1]
  pest or weed control at 200 ppm: ≥ 80%
[2]
  inhibition of growth at 20 ppm: ≥ 80%
[3]
  pest or weed control at 200 ppm: ≥ 80%
[4]
  pest or weed control at 200 ppm: ≥ 80%

## CC1(C)CC(=O)N(Cc2ccc(-c3noc(C(F)(F)F)n3)cc2)O1 [Compound A-6, 5,5-dimethyl-2-[[4-[5-(trifluoromethyl)-1,2,4-oxadiazol-3-yl]phenyl]methyl]isoxazolidin-3-one]
[1]
  pest or weed control at 200 ppm: ≥ 80%
[2]
  inhibition of growth at 20 ppm: ≥ 80%
[3]
  pest or weed control at 200 ppm: ≥ 80%
[4]
  pest or weed control at 200 ppm: ≥ 80%

## CC1CC(=O)N(Cc2ccc(-c3noc(C(F)(F)F)n3)cc2)C1 (centres unmarked) [Compound A-8, 4-methyl-1-[[4-[5-(trifluoromethyl)-1,2,4-oxadiazol-3-yl]phenyl]methyl]pyrrolidin-2-one]
[1]
  pest or weed control at 200 ppm: ≥ 80%
[2]
  inhibition of growth at 20 ppm: ≥ 80%
[3]
  pest or weed control at 200 ppm: ≥ 80%
[4]
  pest or weed control at 200 ppm: ≥ 80%

## O=C1CCCN1Cc1ccc(-c2noc(C(F)(F)F)n2)cn1 [Compound A-28, 1-[[5-[5-(trifluoromethyl)-1,2,4-oxadiazol-3-yl]-2-pyridyl]methyl]pyrrolidin-2-one]
[1]
  pest or weed control at 200 ppm: ≥ 80%
[2]
  inhibition of growth at 20 ppm: ≥ 80%
[4]
  pest or weed control at 200 ppm: ≥ 80%

## COCC(=O)N1CCN(Cc2ccc(-c3noc(C(F)(F)F)n3)cc2)C(=O)C1 [Compound A-31, 4-(2-methoxyacetyl)-1-[[4-[5-(trifluoromethyl)-1,2,4-oxadiazol-3-yl]phenyl]methyl]piperazin-2-one]
[1]
  pest or weed control at 200 ppm: ≥ 80%
[2]
  inhibition of growth at 20 ppm: ≥ 80%
[4]
  pest or weed control at 200 ppm: ≥ 80%

## O=C1CNCCN1Cc1ccc(-c2noc(C(F)(F)F)n2)cc1 [Compound A-36, 1-[[4-[5-(trifluoromethyl)-1,2,4-oxadiazol-3-yl]phenyl]methyl]piperazin-4-ium-2-one; chloride]
[1]
  pest or weed control at 200 ppm: ≥ 80%

## O=C1CCCCN1Cc1ccc(-c2noc(C(F)(F)F)n2)c(F)c1 [Compound A-44, 1-[[3-fluoro-4-[5-(trifluoromethyl)-1,2,4-oxadiazol-3-yl]phenyl]methyl]piperidin-2-one]
[1]
  pest or weed control at 200 ppm: ≥ 80%
[2]
  inhibition of growth at 20 ppm: ≥ 80%
[4]
  pest or weed control at 200 ppm: ≥ 80%

## O=C1OCCN1Cc1ccc(-c2noc(C(F)(F)F)n2)cc1 [Compound A-45, 3-[[4-[5-(trifluoromethyl)-1,2,4-oxadiazol-3-yl]phenyl]methyl]oxazolidin-2-one]
[1]
  pest or weed control at 200 ppm: ≥ 80%
[2]
  inhibition of growth at 20 ppm: ≥ 80%
[4]
  pest or weed control at 200 ppm: ≥ 80%

## CC1(C)CCCN(Cc2ccc(-c3noc(C(F)(F)F)n3)nc2)C1=O [Compound A-52, 3,3-dimethyl-1-[[6-[5-(trifluoromethyl)-1,2,4-oxadiazol-3-yl]-3-pyridyl]methyl]piperidin-2-one]
[2]
  inhibition of growth at 20 ppm: ≥ 80%

## CS(=O)(=O)N1CC(=O)N(Cc2ccc(-c3noc(C(F)(F)F)n3)cc2)C(=O)C1 [Compound A-59, 4-methylsulfonyl-1-[[4-[5-(trifluoromethyl)-1,2,4-oxadiazol-3-yl]phenyl]methyl]piperazine-2,6-dione]
[1]
  pest or weed control at 200 ppm: ≥ 80%
[2]
  inhibition of growth at 20 ppm: ≥ 80%
[3]
  pest or weed control at 200 ppm: ≥ 80%

## CN(C)S(=O)(=O)N1CC(=O)N(Cc2ccc(-c3noc(C(F)(F)F)n3)cc2)C(=O)C1 [Compound A-60, N,N-dimethyl-3,5-dioxo-4-[[4-[5-(trifluoromethyl)-1,2,4-oxadiazol-3-yl]phenyl]methyl]piperazine-1-sulfonamide]
[1]
  pest or weed control at 200 ppm: ≥ 80%
[3]
  pest or weed control at 200 ppm: ≥ 80%

## O=C1CNCC(=O)N1Cc1ccc(-c2noc(C(F)(F)F)n2)cc1 [Compound A-61, 1-[[4-[5-(trifluoromethyl)-1,2,4-oxadiazol-3-yl]phenyl]methyl]piperazin-4-ium-2,6-dione; chloride]
[2]
  inhibition of growth at 20 ppm: ≥ 80%

## O=C1CCCN1Cc1ccc(-c2noc(C(F)(F)F)n2)c(F)c1 [Compound A-63, 1-[[3-fluoro-4-[5-(trifluoromethyl)-1,2,4-oxadiazol-3-yl]phenyl]methyl]pyrrolidin-2-one]
[1]
  pest or weed control at 200 ppm: ≥ 80%
[2]
  inhibition of growth at 20 ppm: ≥ 80%
[4]
  pest or weed control at 200 ppm: ≥ 80%

## CC1(C)CON(Cc2ccc(-c3noc(C(F)(F)F)n3)c(F)c2)C1=O [Compound A-64, 2-[[3-fluoro-4-[5-(trifluoromethyl)-1,2,4-oxadiazol-3-yl]phenyl]methyl]-4,4-dimethyl-isoxazolidin-3-one]
[1]
  pest or weed control at 200 ppm: ≥ 80%
[2]
  inhibition of growth at 20 ppm: ≥ 80%

## O=S1(=O)CCCN1Cc1ccc(-c2noc(C(F)(F)F)n2)cc1Cl [Compound B-2, 2-[[2-chloro-4-[5-(trifluoromethyl)-1,2,4-oxadiazol-3-yl]phenyl]methyl]-1,2-thiazolidine 1,1-dioxide]
[1]
  pest or weed control at 200 ppm: ≥ 80%
[2]
  inhibition of growth at 20 ppm: ≥ 80%

## CN1CCCN(Cc2ccc(-c3noc(C(F)(F)F)n3)cc2)S1(=O)=O [Compound B-3, 2-methyl-6-[[4-[5-(trifluoromethyl)-1,2,4-oxadiazol-3-yl]phenyl]methyl]-1,2,6-thiadiazinane 1,1-dioxide]
[1]
  pest or weed control at 200 ppm: ≥ 80%
[2]
  inhibition of growth at 20 ppm: ≥ 80%
[4]
  pest or weed control at 200 ppm: ≥ 80%

## CN1CCCN(Cc2ccc(-c3noc(C(F)(F)F)n3)cc2Cl)S1(=O)=O [Compound B-4, 2-[[2-chloro-4-[5-(trifluoromethyl)-1,2,4-oxadiazol-3-yl]phenyl]methyl]-6-methyl-1,2,6-thiadiazinane 1,1-dioxide]
[2]
  inhibition of growth at 20 ppm: ≥ 80%
